Like-named read-outs stand apart in the source and are kept apart here.
Molecular target: T1, ACE-2 (Homo sapiens, UniProt Q9BYF1)
T1 construct: a stop codon inserted after the serine immediately preceding the transmembrane domain; made in house; host or cells: CHO K1 cells (transient transfection, purified from conditioned medium)
Assay: ACE-2 Competitive Substrate Assay (ACS Assay)
Format: biochemical

[1] = Ki class, compounds tested in 5% DMSO, 12 compound concentrations, Ki=Kiapp/(1+[S]/Km), read-out: Human ACE-2 Activity
[2] = Ki class per key, compounds tested in 5% DMSO, 12 compound concentrations, 25° C., Ki=Kiapp/(1+[S]/Km), read-out: Human ACE-2 Activity
[3] = Table 3, very good ACE-2 inhibiting compounds, species not given, read-out: ACE-2 Activity, Ki

T1 sequence (Q9BYF1 18-740 limits assumed): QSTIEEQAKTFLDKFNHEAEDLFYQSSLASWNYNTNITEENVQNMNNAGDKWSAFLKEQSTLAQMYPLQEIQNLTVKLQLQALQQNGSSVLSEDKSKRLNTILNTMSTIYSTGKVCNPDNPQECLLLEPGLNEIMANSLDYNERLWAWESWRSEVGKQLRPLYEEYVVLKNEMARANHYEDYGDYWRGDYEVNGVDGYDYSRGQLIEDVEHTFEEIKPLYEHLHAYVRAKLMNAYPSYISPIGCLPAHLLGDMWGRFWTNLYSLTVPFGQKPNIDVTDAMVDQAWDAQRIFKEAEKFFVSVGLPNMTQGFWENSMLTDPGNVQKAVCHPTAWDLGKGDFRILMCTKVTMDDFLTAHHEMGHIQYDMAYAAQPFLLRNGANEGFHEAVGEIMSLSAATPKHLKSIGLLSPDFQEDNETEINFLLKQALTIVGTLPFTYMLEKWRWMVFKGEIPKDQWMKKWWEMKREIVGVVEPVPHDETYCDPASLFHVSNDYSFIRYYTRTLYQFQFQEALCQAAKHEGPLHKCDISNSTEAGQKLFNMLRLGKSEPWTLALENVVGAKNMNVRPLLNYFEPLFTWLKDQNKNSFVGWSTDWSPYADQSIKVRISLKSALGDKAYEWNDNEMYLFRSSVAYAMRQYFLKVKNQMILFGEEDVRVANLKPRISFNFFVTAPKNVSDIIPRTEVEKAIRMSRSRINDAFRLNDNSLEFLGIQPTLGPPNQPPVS

| Ki [1] | Ki [2] | Ki [3] | SMILES | other results |
| --- | --- | --- | --- | --- |
| > 500 nM |  |  | Cc1ccccc1Cn1cncc1C[C@H](NC(CC(C)C)C(=O)O)C(=O)O (single isomer, unassigned) [HX, 2-[1-Carboxy-2-[3-(2-methyl-benzyl)-3H-imidazol-4-yl]-ethylamino]4-methyl-pentanoic acid] |  |
|  |  |  | C[C@@H](N[C@@H](CCCN)C(=O)O)C(=O)O [M, 5-Amino-2-(1-carboxy-ethylamino)-pentanoicacid] | Ki (Ki class, compounds tested in 5% DMSO, 12 concentrations, read-out: Human ACE-2 Activity): > 500 nM |
|  | 100 to 500 nM |  | CC(C)C[C@H](N[C@@H](Cc1ccc(Oc2ccccc2)cc1)C(=O)O)C(=O)O [QJ, 2-[1-Carboxy-2-(4-phenoxy-phenyl)-ethylamino]-4-methyl-pentanoic acid] |  |
|  | > 500 nM |  | CC(C)C[C@H](N[C@@H](CN1C(=O)CN(Cc2ccc(C(F)(F)F)cc2C(F)(F)F)C1=O)C(=O)O)C(=O)O [PY, 2-[2-[3-(2,4-Bis-trifluoromethyl-benzyl)-2,5-dioxo-imidazolidin-1-yl]-1-carboxy-ethylamino]-4-methyl-pentanoic acid] |  |
| 100 to 500 nM |  |  | CC(C)C[C@H](N[C@@H](CN1CCN(Cc2cc(F)cc(F)c2)C1=O)C(=O)O)C(=O)O [LR, 2-[1-Carboxy-2-[3-(3,5-difluoro-benzyl)-2-oxo-imidazolidin-1-yl]-ethylamino]-4-methyl-pentanoic acid] |  |
|  | < 100 nM | < 50 nM | COc1ccccc1C(=O)Nc1ccc(C[C@H](N[C@@H](CC(C)C)C(=O)O)C(=O)O)cc1 [RB, 2-[1-Carboxy-2-[4-(2-methoxy-benzoylamino)-phenyl]-ethylamino]-4-methyl-pentanoic acid] |  |
|  | < 100 nM | 50 to 100 nM | CCOc1ccnc(-c2ccc(C[C@H](N[C@@H](CC(C)C)C(=O)O)C(=O)O)cc2)c1Cl [QB, (S,S)-2-{1-Carboxy-2-[4-(3-chloro-4-ethoxy-pyridin-2-yl)-phenyl]-ethylamino}-4-methyl pentanoic acid] |  |
| > 500 nM |  |  | CC(C)CC(N[C@@H](Cc1cncn1Cc1cccc(Cl)c1)C(=O)O)C(=O)O (single isomer, unassigned) [HD, 2-{1-Carboxy-2-[3-(3-chloro-benzyl)-3H-imidazol-4-yl]-ethylamino)4-methyl-pentanoic acid] |  |
| < 100 nM |  | < 50 nM | CC(C)C[C@H](N[C@@H](Cc1cncn1Cc1ccc(I)cc1)C(=O)O)C(=O)O [NI, 2-[1-Carboxy-2-[3-(4-iodobenzyl)-3H-imidazol-4-yl]-ethylamino]-4-methyl-pentanoic acid] |  |
|  | 100 to 500 nM |  | CC(C)C[C@H](N[C@@H](Cc1ccccc1-c1cc(Cl)cc(Cl)c1)C(=O)O)C(=O)O [PT, S,S-2-[1-Carboxy-2-(3′,5′dichloro-biphenyl-2-yl)-ethylamino]-4-methyl-pentanoic acid] |  |
|  | < 100 nM |  | CC(C)C[C@H](N[C@@H](CN1C(=O)CN(Cc2cc(F)cc(F)c2)C1=O)C(=O)O)C(=O)O [PW, 2-[1-Carboxy-2-[3-(3,5-difluoro-benzyl)-2,5-dioxo-imidazolidin-1-yl]-ethylamino]-4-methyl-pentanoic acid] |  |
|  | < 100 nM |  | CC(C)C[C@H](N[C@@H](Cc1cc(-c2ccccc2Cl)on1)C(=O)O)C(=O)O [QV, 2-[1-Carboxy-2-[5-(2-chloro-phenyl)-isoxazol-3-yl]-ethylamino]-4-methyl-pentanoic acid] |  |
| > 500 nM |  |  | CC(C)C[C@H](N[C@@H](CNS(=O)(=O)c1ccc2ccccc2c1)C(=O)O)C(=O)O [MU, 2-[1-Carboxy-2-(naphthalene-2-sulfonylamino)-ethylamino]-4-methyl-pentanoic acid] |  |
| 100 to 500 nM |  |  | CC(C)C[C@H](N[C@@H](Cc1cc(-c2ccccc2)on1)C(=O)O)C(=O)O [KL, 2-[1-Carboxy-2-(5-phenyl-isoxazol-3-yl)-ethylamino]-4-methyl-pentanoic acid] |  |
| > 500 nM |  |  | CC(C)C[C@H](N[C@@H](CCNC(=O)c1cccc(Cl)c1)C(=O)O)C(=O)O [KP, (S,S)-2-[1-Carboxy-3-(3-chloro-benzoylamino)-propylamino]-4-methyl-pentanoic acid] |  |
|  | < 100 nM | 50 to 100 nM | CC(C)C[C@H](N[C@@H](Cc1ccc(-c2ccccn2)cc1)C(=O)O)C(=O)O [PI, (S,S)-2-[1-Carboxy-2-(4-pyridin-2-yl-phenyl)-ethylamino]-4-methyl-pentanoic acid] |  |
| < 100 nM |  | 50 to 100 nM | CC(C)C[C@H](N[C@@H](Cc1coc(-c2cc(Cl)cc(Cl)c2)n1)C(=O)O)C(=O)O [LN, (S,S)-2-{1-Carboxy-2-[2-(3,5-dichlorophenyl)-oxazol-4-yl]ethylamino}-4-methyl-pentanoic acid] |  |
| 100 to 500 nM |  |  | Cc1c(Cn2cncc2C[C@H](NC(CC(C)C)C(=O)O)C(=O)O)cccc1-c1ccccc1 (single isomer, unassigned) [IQ, 2-[1-Carboxy-2-[3-(2-methyl-biphenyl-3-ylmethyl)-3H-imidazol-4-yl]-ethylamino]-4-methyl-pentanoic acid] |  |
|  | 100 to 500 nM |  | CC(C)C[C@H](N[C@@H](Cc1ccc(NC(=O)C(C)(C)C)cc1)C(=O)O)C(=O)O [QS, 2-{1-Carboxy-2-[4-(2,2-dimethyl-propionylamino)-phenyl]-ethylamino}-4-methyl-pentanoic acid] |  |
|  | 100 to 500 nM |  | CC(C)C[C@H](N[C@@H](Cc1ccc(C(=O)Nc2ccccc2)cc1)C(=O)O)C(=O)O [QF, 2-[1-Carboxy-2-(4-phenylcarbamoyl-phenyl)-ethylamino]-4-methyl-pentanoic acid] |  |
| < 100 nM |  | 50 to 100 nM | CC(C)CC(N[C@@H](Cc1cncn1Cc1cccc(F)c1F)C(=O)O)C(=O)O (single isomer, unassigned) [IU, 2-[1-Carboxy-2-[3-(2,3-difluoro-benzyl)-3H-imidazol-4-yl]-ethylamino]4-methyl-pentanoic acid] |  |
|  | > 500 nM |  | CC(C)C[C@H](N[C@@H](Cc1ccc(NS(=O)(=O)c2ccccc2)cc1)C(=O)O)C(=O)O [PE, (S,S) 2-[2-(4-Benzenesulfonylamino-phenyl)-1-carboxy-ethylamino]-4-methyl-pentanoic acid] |  |
| > 500 nM |  |  | CC(C)C[C@H](N[C@@H](CNC(=O)c1ccc2ccccc2c1)C(=O)O)C(=O)O [MT, 2-(1-Carboxy-2-[(naphthalene-2-carbonyl)amino]-ethylamino)-4-methyl-pentanoic acid] |  |
| > 500 nM |  |  | CC(C)CC(N[C@@H](Cc1cncn1Cc1ccc2c(c1)OCO2)C(=O)O)C(=O)O (single isomer, unassigned) [JF] |  |
|  | < 100 nM | 50 to 100 nM | Cc1ccnc(-c2ccc(C[C@H](N[C@@H](CC(C)C)C(=O)O)C(=O)O)cc2)c1 [QA, (S,S)-2-{1-Carboxy-2-[4-(4-methyl-pyridin-2-yl)-phenyl]-ethylamino}-4-methyl-pentanoic acid] |  |
|  | < 100 nM | < 50 nM | CC(C)C[C@H](N[C@@H](Cc1cc(-c2ccc(Cl)cc2)on1)C(=O)O)C(=O)O [QU, 2-(1-Carboxy-2-[5-(4-chloro-phenyl)-isoxazol-3-yl]-ethylamino]-4-methyl-pentanoic acid] |  |
| > 500 nM |  |  | Cc1cc(C)cc(Cn2cncc2C[C@H](NC(CC(C)C)C(=O)O)C(=O)O)c1 (single isomer, unassigned) [HR, 2-[1-Carboxy-2-[3-(3,5-dimethyl-benzyl)-3H-imidazol-4-yl]-ethylamino)4-methyl-pentanoic acid] |  |
|  | < 100 nM | < 50 nM | CC(C)C[C@H](N[C@@H](Cc1ccc(C(=O)O)n1Cc1cc(Cl)cc(Cl)c1)C(=O)O)C(=O)O [QY, 5-[2-Carboxy-2-(1-carboxy-3-methyl-butylamino)-ethyl]-1-(3,5-dichloro-benzyl)-1H-pyrrole-2-carboxylic acid] |  |
|  | < 100 nM | 50 to 100 nM | Cc1ccc(-n2ccc(C[C@H](N[C@@H](CC(C)C)C(=O)O)C(=O)O)n2)cc1 [QQ, 2-[1-Carboxy-2-(1-p-tolyl-1H-pyrazol-3-yl)-ethylamino]-4-methyl-pentanoic acid] |  |
| 100 to 500 nM |  |  | CC(C)C[C@@H](N[C@H](Cc1cncn1Cc1cc(Cl)cc(Cl)c1)C(=O)O)C(=O)O [MZ, (R,R)-2-{1-Carboxy-2-[3-(3,5-dichloro-benzyl)-3H-imidazol-4-yl]-ethylamino}-4-methyl-pentanoic acid] |  |

| SMILES | Ki [1] | Ki [2] | Ki [3] | other results |
| --- | --- | --- | --- | --- |
| CC(C)C[C@H](N[C@@H](Cc1ccc(OC(C)(C)C)cc1)C(=O)O)C(=O)O [LU, 2-[2-(4-tert-Butoxy-phenyl)-1-carboxy-ethylamino]-4-methyl-pentanoic acid] | > 500 nM |  |  |  |

From patent US7045532B2 (Millennium Pharmaceuticals, Inc., priority 1999, dated 2006)
